Data published in US8377943B2, “2,4-diaminopyrimidine derivates as PTK2-inhibitors for the treatment of abnormal cell growth” (Boehringer Ingelheim International GmbH, priority 2008, dated 2013).

Legend:
[1] = target: T1, PTK2-phosphorylation at tyrosine 397 (pY397) (Homo sapiens, UniProt Q05397); experiment: Phospho-PTK2 (pY397) Assay in PC-3 cells; format: cell-based; conditions: PC-3 prostate carcinoma cells, 2 h incubation; read-out: PC3pPTK2 Y397 EC50
T1 construct: endogenous in cells; host or cells: PC-3 (ATCC CRL-1435)
T1 sequence (Q05397 whole entry): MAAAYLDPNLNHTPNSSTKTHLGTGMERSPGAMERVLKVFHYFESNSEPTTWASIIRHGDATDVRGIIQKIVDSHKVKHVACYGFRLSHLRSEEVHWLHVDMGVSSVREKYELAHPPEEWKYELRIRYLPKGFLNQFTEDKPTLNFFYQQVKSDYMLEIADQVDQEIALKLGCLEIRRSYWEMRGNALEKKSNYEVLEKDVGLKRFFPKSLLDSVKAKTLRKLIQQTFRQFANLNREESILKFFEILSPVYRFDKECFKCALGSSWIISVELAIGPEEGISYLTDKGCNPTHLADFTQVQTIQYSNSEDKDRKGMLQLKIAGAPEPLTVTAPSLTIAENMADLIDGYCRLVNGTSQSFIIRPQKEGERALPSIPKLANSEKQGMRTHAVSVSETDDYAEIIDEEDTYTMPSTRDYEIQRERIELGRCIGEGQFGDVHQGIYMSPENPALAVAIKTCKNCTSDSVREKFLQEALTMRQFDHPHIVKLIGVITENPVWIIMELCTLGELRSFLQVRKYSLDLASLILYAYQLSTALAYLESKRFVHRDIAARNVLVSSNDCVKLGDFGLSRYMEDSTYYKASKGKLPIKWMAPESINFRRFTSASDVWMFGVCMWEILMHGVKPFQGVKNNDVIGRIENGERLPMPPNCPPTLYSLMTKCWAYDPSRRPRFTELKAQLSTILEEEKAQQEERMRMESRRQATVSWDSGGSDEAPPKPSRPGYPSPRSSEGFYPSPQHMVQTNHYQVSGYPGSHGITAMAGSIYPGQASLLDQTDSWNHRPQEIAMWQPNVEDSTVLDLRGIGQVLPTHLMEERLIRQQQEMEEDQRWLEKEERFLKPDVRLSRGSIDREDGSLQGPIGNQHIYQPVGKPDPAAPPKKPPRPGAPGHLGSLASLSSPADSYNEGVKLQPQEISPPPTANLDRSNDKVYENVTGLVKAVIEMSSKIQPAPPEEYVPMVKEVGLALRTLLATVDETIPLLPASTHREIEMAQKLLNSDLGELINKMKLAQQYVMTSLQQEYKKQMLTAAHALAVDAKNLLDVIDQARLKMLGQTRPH
Protocol: This cellular test is used to determine the influence of PTK2-inhibitors on the state of the PTK2-phosphorylation at tyrosine 397 (pY397).
PC-3 cells (prostate carcinoma, ATCC CRL-1435) are grown in cell culture flasks (175 cm^2) with F12 Kaighn's Medium (Gibco, No.: 21127) with the addition of 10% foetal calf serum (Invitrogen, No.: 16000-044). The cultures are incubated in the incubator at 37° C. and 5% CO2 and run twice a week.
For the test, 2×10^4 cells pro well/[…] are plated out in 96-well microtitre plates (Costar, No.: 3598) and incubated overnight in the incubator at 37° C. and 5% CO2. The test compounds (10 μL from serial dilution) are added the next day. The concentration of the test compounds usually covers a range of 50 μM and 0.8 nM. The test compounds (stock solution: 10 mM in 100% DMSO) are diluted in medium/medium 10% DMSO such that the final concentration is 1% DMSO. The cells are then incubated in the incubator at 37° C. and 5% CO2 for 2 h. Then the culture supernatant is removed and the cells are fixed with 150 μL 4% formaldehyde in D-PBS for 20 min at RT. The cell lawn is washed five times with 200 μL 0.1% Triton X-100 in D-PBS for 5 min in each case and then incubated for 90 min with blocking buffer (5% skimmed milk powder (Maresi Fixmilch) in TBST (25 mM Tris/HCl, pH 8.0, 150 mM NaCl, 0.05% Tween 20). The blocking buffer is replaced by 50 μL of the first antibody anti-phospho PTK2 [pY397] rabbit monoclonal (Invitrogen/Biosource, No.: 44-625G), which is diluted 1:200 in blocking buffer. For control purposes, alternatively a PTK2 [total] antibody (clone 4.47 mouse monoclonal, Upstate, No.: 05-537), diluted 1:400 in blocking buffer is used. This incubation is carried out at 4° C. overnight. Then the cell lawn is washed five times with 100 μL of 0.1% Tween in D-PBS for 5 min in each case and 50 μL/well of second antibody are added. In order to detect bound phospho-PTK2 [pY397] antibody a goat-anti-rabbit antibody is used which is coupled with horseradish peroxidase (Dako, No.: P0448; 1:500 dilution in blocking buffer). In order to detect bound PTK2 [total]-antibodies a rabbit-anti-mouse antibody is used, which is also coupled with horseradish peroxidase (Dako, No.: PO161; 1:1000 dilution in blocking buffer). This incubation is carried out for 1 h at RT with gentle shaking. The cell lawn is then again washed five times with 100 μL of 0.1% Tween in D-PBS for 5 min in each case. […] The EC50 values are determined from concentration-activity analyses by iterative calculation with the aid of a sigmoidal curve analysis algorithm (FIFTY, based on GraphPAD Prism Version 3.03) with a variable Hill coefficient.

PTK2 = target: T2, PTK2 (Homo sapiens, UniProt Q05397); experiment: PTK2 Enzyme Test (DELFIA assay, poly-Glu-Tyr substrate); format: biochemical; conditions: active PTK2 enzyme, 50 μM ATP in ATP Mix, 1 h pre-incubation
T2 construct: purchased Invitrogen PV3832
T2 sequence (Q05397 whole entry): as above
Protocol: This test uses active PTK2 enzyme (Invitrogen Code PV3832) and poly-Glu-Tyr (4:1, Sigma P-0275) as the kinase substrate. The kinase activity is detected by means of the phosphorylation of the substrate in a DELFIA™ assay. The phosphorylated substrate is detected with the Europium-labelled phosphotyrosine antibody PY20 (Perkin Elmer, No.: AD0038).
In order to determine concentration-activity curves with PTK2-inhibitors the compounds are serially diluted in 10% DMSO/H2O and 10 μL of each dilution are dispensed per well in a 96-well microtitre plate (clear U-shaped base plate, Greiner No. 650101) (the inhibitors are tested in duplicates) and mixed with 10 μL/well of PTK2 kinase (0.01 μg/well). PTK2 kinase is diluted accordingly beforehand with kinase dilution buffer (20 mM TRIS/HCl pH 7.5, 0.1 mM EDTA, 0.1 mM EGTA, 0.286 mM sodium orthovanadate, 10% glycerol with the addition of freshly prepared BSA (fraction V 1 mg/mL) and DTT (1 mM)). The test compound and the PTK2 kinase are pre-incubated for 1 h at RT and shaken at 500 rpm. Then 20 μL ATP Mix (30 mM TRIS/HCl pH 7.5, 0.02% Brij, 0.2 mM sodium orthovanadate, 10 mM magnesium acetate, 0.1 mM EGTA, 1× Phosphatase Inhibitor Cocktail 1 (Sigma, No.: P2850), 50 μM ATP (Sigma, No.: A3377; 15 mM stock solution)) are added. The reaction is started by the addition of 10 μL/well of poly (Glu,Tyr) substrate (25 μg/well poly (Glu,Tyr), 0.05 μg/well biotinylated poly (Glu,Tyr) dissolved in 250 mM TRIS/HCl pH 7.5, 9 mM DTT)—the final concentration of DMSO is 2%. After 1 h kinase reaction (the plates are shaken at 500 rpm), the reaction is stopped by the addition of 12 μL/well of 100 mM EDTA, pH 8. And shaken for a further 5 min at RT (500 U/min).
55 μL of the reaction mixture are transferred into a streptavidin plate (Strepta Well High Bind (transparent, 96-well) made by Roche, No.: 11989685001) and incubated for 1 h at RT (shaking at 500 rpm). Then the microtitre plate is washed three times with 200 μL/well D-PBS (Invitrogen, No.:14190). 100 μL of 1:2000 diluted DELFIA Eu-N1 Anti-Phosphotyrosine PY20 antibody (Perkin Elmer, No.: AD0038, 1:2000 diluted in DELFIA test buffer (Perkin Elmer, No.: 1244-111)) is then added and it is incubated for 1 h at RT (shaking at 500 rpm). Then the plate is washed three times with 200 μL/well DELFIA washing buffer (Perkin Elmer, No.: 1244-114), 200 μL/well strengthening solution (Perkin Elmer, No.: 1244-105) is added and the whole is incubated for 10 min at RT (shaking at 300 rpm).
The time-delayed europium fluorescence is then measured in a microtitre plate reader (Victor, Perkin Elmer). The positive control consists of wells that contain solvent (2% DMSO in test buffer) and display uninhibited kinase activity. Wells that contain test buffer instead of enzyme act as a control for the background kinase activity.
The IC50 values are determined from concentration-activity analyses by iterative calculation using a sigmoidal curve analysis algorithm (FIFTY, based on GraphPAD Prism Version 3.03) with a variable Hill coefficient.

Row | EC50 [1] [nM] | IC50 (PTK2) [nM] | Structure (SMILES)
1 | 0.59 | 3 | COc1cc(CNC2CCN(C)CC2)ccc1Nc1ncc(C(F)(F)F)c(NCc2ccc(C)cc2N(C)S(C)(=O)=O)n1 [Example 59]
2 | 0.6 | 4 | COc1cc(C(=O)NC2CCOCC2)ccc1Nc1ncc(C(F)(F)F)c(NCc2ccc(C)cc2N(C)S(C)(=O)=O)n1 [Example 60]
3 | 0.6 | 2 | COc1cc(CNC2CCC2)ccc1Nc1ncc(C(F)(F)F)c(NCc2ccc(C)cc2N(C)S(C)(=O)=O)n1 [Example 61]
4 | 0.63 | 3 | COc1cc(CNC2CCCC2)ccc1Nc1ncc(C(F)(F)F)c(NCc2ccc(C)cc2N(C)S(C)(=O)=O)n1 [Example 63]
5 | 0.67 | 3 | COc1cc(C(=O)NC2CCOC2)ccc1Nc1ncc(C(F)(F)F)c(NCc2ccc(C)cc2N(C)S(C)(=O)=O)n1 (stereo not shown) [Example 64]
6 | 0.67 | 4 | COc1cc(C(=O)N[C@H]2CC[C@@H]3[C@@H](CCN3C)C2)ccc1Nc1ncc(C(F)(F)F)c(NCc2ccc(C)cc2N(C)S(C)(=O)=O)n1 [Example 65]
7 | 0.7 | 1 | CCNCc1ccc(Nc2ncc(C(F)(F)F)c(NCc3ccc(C)cc3N(C)S(C)(=O)=O)n2)c(OC)c1 [Example 66]
8 | 0.7 | 7 | COc1cc(CNCc2ccccc2)ccc1Nc1ncc(C(F)(F)F)c(NCc2ccc(C)cc2N(C)S(C)(=O)=O)n1 [Example 67]
9 | 0.72 | 2 | COc1cc(NC(C)=O)c(C)cc1Nc1ncc(C(F)(F)F)c(NCc2ccc(C)cc2N(C)S(C)(=O)=O)n1 [Example 68]
10 | 0.74 | 1 | CNC(=O)c1ccc(Nc2ncc(C(F)(F)F)c(NCc3ccc(C)cc3N(C)S(C)(=O)=O)n2)c(OC)c1 [Example 69]
11 | 0.74 | 4 | COc1cc(C(=O)NCC2CCCO2)ccc1Nc1ncc(C(F)(F)F)c(NCc2ccc(C)cc2N(C)S(C)(=O)=O)n1 (stereo not shown) [Example 70]
12 | 0.74 | 3 | COc1cc(C(=O)NC2CC(N3CCOCC3)C2)ccc1Nc1ncc(C(F)(F)F)c(NCc2ccc(C)cc2N(C)S(C)(=O)=O)n1 (stereo not shown) [Example 71]
13 | 0.75 | 3 | COc1cc(CNC2CC2)ccc1Nc1ncc(C(F)(F)F)c(NCc2ccc(C)cc2N(C)S(C)(=O)=O)n1 [Example 72]
14 | 0.77 | 1 | COc1cc(C(=O)NC2CCN(C)CC2)ccc1Nc1ncc(C(F)(F)F)c(NCc2ccc(C)cc2N(C)S(C)(=O)=O)n1 [Example 73, 4-{4-[2-(methanesulphonyl-methyl-amino)-4-methyl-benzylamino]-5-trifluoromethyl-pyrimidin-2-ylamino}-3-methoxy-N-(1-methyl-piperidin-4-yl)-benzamide]
15 | 0.84 | 1 | COc1cc(N2CCN(C(C)C)CC2)ccc1Nc1ncc(C(F)(F)F)c(NCc2ccc(F)cc2N(C)S(C)(=O)=O)n1 [Example 75]
16 | 0.88 | 2 | COc1cc(C(=O)N[C@H]2CC[C@H](N3CCOCC3)CC2)ccc1Nc1ncc(C(F)(F)F)c(NCc2ccc(C)cc2N(C)S(C)(=O)=O)n1 [Example 76]
17 | 0.93 | 4 | COc1cc(C(=O)NC2CCN(C)CC2)c(Cl)cc1Nc1ncc(C(F)(F)F)c(NCc2ccc(C)cc2N(C)S(C)(=O)=O)n1 [Example 78]
18 | 1 | 2 | COc1cc(N2CCN(C)CC2)ccc1Nc1ncc(C(F)(F)F)c(NCc2ccc(C)cc2N(C)S(C)(=O)=O)n1 [Example 79]
19 | 1 | 0.98 | Cc1ccc(CNc2nc(Nc3ccc(C(=O)NC4CCN(C)CC4)cc3C)ncc2C(F)(F)F)c(N(C)S(C)(=O)=O)c1 [Example 80]
20 | 1 | 1 | CNC(=O)c1ccc(Nc2ncc(C(F)(F)F)c(NCc3ccc(OC)cc3N(C)S(C)(=O)=O)n2)c(OC)c1 [Example 81]
21 | 1 | 2 | COc1cc(N2CCN(CC(=O)N(C)C)CC2)ccc1Nc1ncc(C(F)(F)F)c(NCc2ccc(F)cc2N(C)S(C)(=O)=O)n1 [Example 82]
22 | 1 | 2 | COc1cc(C(=O)NC2CCNCC2)ccc1Nc1ncc(C(F)(F)F)c(NCc2ccc(C)cc2N(C)S(C)(=O)=O)n1 [Example 83]
23 | 1 | 3 | COc1cc(C(=O)NC2CCC(N3CCOCC3)CC2)c(C)cc1Nc1ncc(C(F)(F)F)c(NCc2ccc(C)cc2N(C)S(C)(=O)=O)n1 (stereo not shown) [Example 84]
24 | 1 | 3 | COc1cc(C(=O)N[C@@H]2CCCN(CC3CC3)C2)ccc1Nc1ncc(C(F)(F)F)c(NCc2ccc(C)cc2N(C)S(C)(=O)=O)n1 [Example 85]
25 | 1 | 3 | COc1cc(C(=O)N[C@@H]2CCCN(C3CCC3)C2)ccc1Nc1ncc(C(F)(F)F)c(NCc2ccc(C)cc2N(C)S(C)(=O)=O)n1 [Example 86]
26 | 1 | 1 | COc1ccc(CNc2nc(Nc3ccc(NC(C)=O)c(OC)c3)ncc2C(F)(F)F)c(N(C)S(C)(=O)=O)c1 [Example 87]
27 | 1 | 4 | COc1cc(CNCCN(C)C)ccc1Nc1ncc(C(F)(F)F)c(NCc2ccc(C)cc2N(C)S(C)(=O)=O)n1 [Example 88]
28 | 1 | 2 | COc1cc(CNC(C)C)ccc1Nc1ncc(C(F)(F)F)c(NCc2ccc(C)cc2N(C)S(C)(=O)=O)n1 [Example 89]

Row | Structure (SMILES) | EC50 [1] [nM] | IC50 (PTK2) [nM]
29 | COc1cc(C(=O)N[C@@H]2CN3CCC2CC3)ccc1Nc1ncc(C(F)(F)F)c(NCc2ccc(C)cc2N(C)S(C)(=O)=O)n1 [Example 74] | 0.8 | 3
